Measurements as given in patent publication US12186284B2, “Antimicrobial formulations for the treatment of veterinary hoof infections” (Provita Eurotech Ltd, priority 2016, dated 2025).

Assays:
[1] = test system: Escherichia coli (NCTC12241); test: Rate of kill assay based on BS EN 1276:1997, clean and dirty conditions; format: cell-based; conditions: 3× MIC (0.375% v/v; CS 0.15% w/v)
Excerpt: The rate of kill assay is based on the British and European standard test conditions BS EN 1276:1997.
The initial inoculum of microorganism ranged between 10^6-10^7 colony forming units per mL.

[2] = test system: Escherichia coli (NCTC12241); test: Minimum inhibitory concentration (MIC); format: cell-based; conditions: three times the minimum inhibitory concentration

O=S(=O)([O-])[O-].[Cu+2] [CS, copper sulphate]
Surviving Bacterial Count (cfu/mL) under clean and dirty conditions ([1]; contact time 0 s, clean (no bovine albumin)): 3.2 × 10^6 cfu/mL
Surviving Bacterial Count (cfu/mL) under clean and dirty conditions ([1]; contact time 0 s, dirty (0.3% bovine albumin)): 1.4 × 10^7 cfu/mL
Surviving Bacterial Count (cfu/mL) under clean and dirty conditions ([1]; contact time 30 s, clean (no bovine albumin)): 1.7 × 10^6 cfu/mL
Surviving Bacterial Count (cfu/mL) under clean and dirty conditions ([1]; contact time 30 s, dirty (0.3% bovine albumin)): 1.1 × 10^7 cfu/mL
Surviving Bacterial Count (cfu/mL) under clean and dirty conditions ([1]; contact time 60 s, clean (no bovine albumin)): 6.2 × 10^5 cfu/mL
Surviving Bacterial Count (cfu/mL) under clean and dirty conditions ([1]; contact time 60 s, dirty (0.3% bovine albumin)): 9.7 × 10^6 cfu/mL
Surviving Bacterial Count (cfu/mL) under clean and dirty conditions ([1]; contact time 120 s, clean (no bovine albumin)): 3.3 × 10^5 cfu/mL
Surviving Bacterial Count (cfu/mL) under clean and dirty conditions ([1]; contact time 120 s, dirty (0.3% bovine albumin)): 5.2 × 10^6 cfu/mL
Surviving Bacterial Count (cfu/mL) under clean and dirty conditions ([1]; contact time 300 s, clean (no bovine albumin)): 5.0 × 10^3 cfu/mL
Surviving Bacterial Count (cfu/mL) under clean and dirty conditions ([1]; contact time 300 s, dirty (0.3% bovine albumin)): 3.2 × 10^4 cfu/mL
3MIC [2]: 0.15%
